The source of these data is ChEMBL document CHEMBL1126780, “Selective non-nucleoside HIV-1 reverse transcriptase inhibitors. New 2,3-dihydrothiazolo[2,3-a]isoindol-5(9bH)-ones and related compounds with anti-HIV-1 activity” (J Med Chem, 1993).

Where a name gives a salt, the structure may show the parent alone. A value given as a limit tells only on which side of the number the result lay.

One assay relates to MT2. Description: Inhibitory concentration which prevents the spread of HIV-1 IIIB infection in MT2 T-lymphoid cells. The assay is classed as functional, cell-based. To be noted: Homo sapiens.
For the compound `O=C1c2ccccc2[C@@]2(c3cccc4ccccc34)SCCN12`, it took 0.046 µM to reach half-maximal inhibition (IC50).
On to `O=C1c2ccccc2[C@@]2(c3ccccc3)SCCN12`, for which half-maximal inhibition (IC50) required 0.392 µM.
Same read-out and setting: then `CCc1cc(NCc2nc3c(Cl)ccc(Cl)c3o2)c(O)nc1C` [L-697661], with 0.08 µM; and `Cc1cccc([C@]23SCCN2C(=O)c2ccccc23)c1`, with 0.051 µM; and `O=C1c2ccc(Cl)cc2[C@@]2(c3ccccc3)SCCN12`, with 0.074 µM.
With `CC(C)=CCN1Cc2cccc3[nH]c(=S)n(c23)C[C@@H]1C`, the IC50 (in general, the concentration that gives 50% inhibition) is 0.217 µM.
The same measure, in the same setting: then `Cc1ccnc(C23SCCN2C(=O)c2cccnc23)c1` (stereo not given), with 7.8 µM; and `Cc1ccnc2c1NC(=O)c1cccnc1N2C1CC1` [NEVIRAPINE], with 0.303 µM.
Still for that read-out and setting: then `Cc1cc(C)cc([C@]23SCCN2C(=O)c2ccccc23)c1`, with 0.01 µM.
Same read-out and setting: then `CCNc1cccnc1N1CCN(C(=O)c2cc3cc(OC)ccc3[nH]2)CC1` [ATEVIRDINE MESYLATE], with 1.59 µM.

A further assay concerns the target Human immunodeficiency virus type 1 reverse transcriptase (Human immunodeficiency virus 1, UniProt Q72547). Description: Inhibitory activity against HIV-1 reverse transcriptase (HIV-RT).
Conditions: not given
Take `Nc1cccc(C23SCCN2C(=O)c2ccccc23)c1` (stereo not given): half-maximal inhibition (IC50) was put at 4.6 µM.
Compound `O=C1c2ccccc2C2(c3ccccc3)CCCCN12` (stereo not given) displayed an IC50 of 75.5 µM.
The same measure, in the same setting: then `N#Cc1cccc(C23SCCN2C(=O)c2ccccc23)c1` (stereo not given), with 1.81 µM; and `Cc1ccc2c(c1)C1(c3ccccc3)SCCN1C2=O` (stereo not given), with 0.72 µM.
Compound `COC(=O)[C@H]1CSC2(c3ccccc3)c3ccccc3C(=O)N12` (stereo not given in full) came in with an IC50 of 0.22 µM.
As to `CC(C)c1cccc(C23SCCN2C(=O)c2ccccc23)c1` (stereo not given), the IC50 amounted to 2.1 µM.
The same measure, in the same setting: then `O=C1c2ccccc2C2(c3ccncc3)SCCN12` (stereo not given), with above 30 µM; and `Cc1cccc(C23SCCN2C(=O)c2ccccc23)c1` (stereo not given), with 0.035 µM; and `O=C1c2ncccc2C2(c3ccccc3)SCCN12` (stereo not given), with above 100 µM.
For the compound `O=C1c2ccccc2C2(c3ccccc3)SCCCN12` (stereo not given), the IC50 was found to be 2.2 µM.
In turn, `O=C1c2ccccc2C2(c3ccccc3)Sc3ccccc3CN12` (stereo not given) registered an IC50 of 40 µM.
As for `Cc1ccc(C23SCCN2C(=O)c2ccccc23)cc1` (stereo not given), the IC50 stood at 0.77 µM.
`O=C1c2ccc([N+](=O)[O-])cc2C2(c3ccccc3)SCCN12` (stereo not given) returned an IC50 of 10 µM.
For the compound `O=C1c2c(ccc3ccccc23)C2(c3ccccc3)SCCN12` (stereo not given), the IC50 was above 100 µM.
The same measure, in the same setting: then `COc1ccc(C23SCCN2C(=O)c2ccccc23)cc1` (stereo not given), with above 30 µM; and `O=C1c2ccccc2[C@@]2(c3cccc4ccccc34)SCCN12`, with 0.15 µM.
`O=C1c2ccccc2C2(c3ccco3)SCCN12` (stereo not given) displayed an IC50 of 1.35 µM.
`O=C1c2ccc(Cl)cc2C2(c3ccccc3)SCCN12` (stereo not given) had a half-maximal inhibitory concentration (IC50) of 0.19 µM.
Same read-out and setting: then `Cc1cc(C)cc(C23SCCN2C(=O)c2ccccc23)c1` (stereo not given), with 0.084 µM.
Still for that read-out and setting: then `O=C1c2ccccc2C2(c3ccccn3)SCCN12` (stereo not given), with 5.85 µM.
The same measure, in the same setting: then `O=C1c2ccccc2C2(c3ccccc3)N1CC[S+]2[O-]` (stereo not given), with 1.45 µM.
Regarding `O=C1c2ccc(C(F)(F)F)cc2C2(c3ccccc3)SCCN12` (stereo not given), the midpoint of inhibition, the IC50, lay at 17.7 µM.
Same read-out and setting: then `O=C1c2ccc3ccccc3c2C2(c3ccccc3)SCCN12` (stereo not given), with 26 µM; and `O=C1c2ccccc2[C@@]2(c3ccccc3)SCCN12`, with 0.28 µM.
The same measure, in the same setting: then `O=C1c2ccccc2C2(c3cccc4c3CCC4)SCCN12` (stereo not given), with 0.9 µM.
The compound `CCc1cc(NCc2nc3c(Cl)ccc(Cl)c3o2)c(O)nc1C` [L-697661] had an IC50 of 0.001 µM. This IC50 is about 900-fold lower than that of the compound before.
On the same count and under the same terms, then `O=C1c2cnccc2C2(c3ccccc3)SCCN12` (stereo not given), with above 100 µM.
Still for that read-out and setting: then `O=C1c2ccccc2[C@]2(c3ccccc3)SCCN12`, with 39.6 µM; and `COc1ccc2c(c1)C1(c3ccccc3)SCCN1C2=O` (stereo not given), with 3.6 µM.
`C[C@@H]1CN2C(=O)c3ccccc3C2(c2ccccc2)O1` (stereo not given in full): the half-inhibitory concentration (IC50) amounted to 37.6 µM.
On to `O=C1c2ccccc2C2(c3cc(Cl)cc(Cl)c3)SCCN12` (stereo not given), for which it took 0.59 µM to reach half-maximal inhibition (IC50).
The same measure, in the same setting: then `O=C1c2ccccc2C2(c3cccnc3)SCCN12` (stereo not given), with 28 µM; and `O=C1c2ccccc2C2(c3cccs3)SCCN12` (stereo not given), with 2.65 µM.
On the same count and under the same terms, then `COc1cccc(C23SCCN2C(=O)c2ccccc23)c1` (stereo not given), with 0.97 µM; and `O=C1c2cccc(Cl)c2C2(c3ccccc3)SCCN12` (stereo not given), with 0.29 µM.
`O=C1c2ccccc2C2(c3cccc(Cl)c3)SCCN12` (stereo not given) had an IC50 of 0.14 µM.
Same read-out and setting: then `S=C1c2ccccc2C2(c3ccccc3)SCCN12` (stereo not given), with 3.5 µM; and `Cc1cccc(C23SCCN2C(=O)c2cccnc23)n1` (stereo not given), with 6.6 µM; and `O=C1c2ccccc2C2(c3ccc[nH]3)SCCN12` (stereo not given), with above 100 µM.
Still for that read-out and setting: then `O=C1c2cccnc2C2(c3ccccn3)SCCN12` (stereo not given), with 23 µM; and `Cc1cccc([C@]23SCCN2C(=O)c2ccccc23)c1`, with 0.035 µM; and `Cc1ccc(C23SCCN2C(=O)c2ccccc23)cc1C` (stereo not given), with 0.39 µM.
The same measure, in the same setting: then `Cc1cccc(C23SCCN2C(=O)c2ccccc23)n1` (stereo not given), with 4.1 µM; and `O=C1c2ccccc2C2(c3ccccc3)OCCN12` (stereo not given), with 6.1 µM.
Regarding `O=C1c2ccc(Cl)cc2[C@@]2(c3ccccc3)SCCN12`, the IC50 stood at 0.09 µM. Against the preceding compound, the IC50 is about 68-fold lower.
In turn, `O=C1c2cc(Cl)c(Cl)cc2C2(c3ccccc3)SCCN12` (stereo not given) came in with an IC50 of 4.48 µM. Compared with the last compound, the IC50 is about 50-fold higher.
As for `Cc1cccc2c1C(=O)N1CCSC21c1ccccc1` (stereo not given), inhibition was half-maximal at 8 µM (IC50).
The same measure, in the same setting: then `COc1ccc2c(c1)C(=O)N1CCSC21c1ccccc1` (stereo not given), with 4 µM; and `O=C1c2ccccc2C2(c3ccccc3)N1CCS2(=O)=O` (stereo not given), with above 10 µM.
In turn, `O=C1c2ccccc2C2(c3ccccc3)SCCN12` (stereo not given) had a concentration for half-maximal inhibition (IC50) of 0.7 µM.
The same measure, in the same setting: then `Nc1ccc2c(c1)C1(c3ccccc3)SCCN1C2=O` (stereo not given), with 4.5 µM.
Still for that read-out and setting: then `O=C1c2ccccc2C2(c3c4ccccc4cc4ccccc34)SCCN12` (stereo not given), with 0.9 µM.
Still for that read-out and setting: then `C[C@@H]1COC2(c3ccccc3)c3ccccc3C(=O)N12` (stereo not given in full), with 40 µM.
Turning to `C[C@H]1COC2(c3ccccc3)c3ccccc3C(=O)N12` (stereo not given in full), the IC50 was 73 µM.
`O=C1c2ccccc2C2(c3ccccc3)NCCN12` (stereo not given) gave an IC50 above 100 µM.
Still for that read-out and setting: then `NC(=O)[C@H]1CSC2(c3ccccc3)c3ccccc3C(=O)N12` (stereo not given in full), with 59 µM.
Take `Cc1ccnc(C23SCCN2C(=O)c2ccccc23)c1` (stereo not given): the IC50 came out at 1 µM.
In the case of `O=C1c2ccncc2C2(c3ccccc3)SCCN12` (stereo not given), the IC50 is 17 µM. Compared with the last compound, the IC50 is about 17-fold higher.
Compound `C[C@H]1CN2C(=O)c3ccccc3C2(c2ccccc2)O1` (stereo not given in full) had an IC50 above 100 µM.
Same read-out and setting: then `Cc1ccnc(C23SCCN2C(=O)c2cccnc23)c1` (stereo not given), with 4.6 µM.
Compound `O=C1c2ccccc2C2(c3cccc4ccccc34)SCCN12` (stereo not given) gave an IC50 of 0.13 µM. This IC50 is about 35-fold lower than that of the compound before.
Turning to `O=C1c2ccccc2C2(c3cccc(O)c3)SCCN12` (stereo not given), 12.7 µM corresponded to half-maximal inhibition (IC50).
Compound `Cc1ccc2c(c1)C(=O)N1CCSC21c1ccccc1` (stereo not given) had a 50% inhibitory concentration (IC50) of 10 µM.
`O=C1c2ccccc2C2(c3cccc(C(F)(F)F)c3)SCCN12` (stereo not given) yielded an IC50 of 1.05 µM.
In turn, `O=C1c2cc(Cl)ccc2C2(c3ccccc3)SCCN12` (stereo not given) gave an IC50 of 24 µM.
Still for that read-out and setting: then `O=C(O)[C@H]1CSC2(c3ccccc3)c3ccccc3C(=O)N12` (stereo not given in full), with above 100 µM.
Compound `CCc1cccc(C23SCCN2C(=O)c2ccccc23)c1` (stereo not given) had an IC50 of 1.1 µM.
In turn, `Cc1cccc(C23SCCN2C(=O)c2ccccc23)c1C` (stereo not given) showed an IC50 of 1.65 µM.
The same measure, in the same setting: then `O=C1c2ccccc2C2(c3ccccc3)CCCN12` (stereo not given), with 15 µM.
Still for that read-out and setting: then `O=C1c2cccnc2C2(c3ccccc3)SCCN12` (stereo not given), with 3.45 µM; and `O=C1c2ccccc2C2(c3ccccc3)NCCCN12` (stereo not given), with above 10 µM.
Still for that read-out and setting: then `O=C1c2cc3ccccc3cc2C2(c3ccccc3)SCCN12` (stereo not given), with 10 µM.
`Cc1cc(C)cc([C@]23SCCN2C(=O)c2ccccc23)c1` returned an IC50 of 0.016 µM.
In turn, `O=C1c2ccccc2C2(c3ccc(Cl)cc3)SCCN12` (stereo not given) showed an IC50 of 4 µM.
`O=C1c2ccccc2C2(c3ccccc3)OCCCN12` (stereo not given) came in with an IC50 of 51 µM.
The same measure, in the same setting: then `Cc1ccc(C)c(C23SCCN2C(=O)c2ccccc23)c1` (stereo not given), with 0.97 µM.
On the same count and under the same terms, then `O=C1c2ccccc2C2(c3ccc(Cl)c(Cl)c3)SCCN12` (stereo not given), with 4 µM; and `CC(C)c1ccc(C23SCCN2C(=O)c2ccccc23)cc1` (stereo not given), with 10 µM; and `Cc1ccccc1C12SCCN1C(=O)c1ccccc12` (stereo not given), with 6.3 µM.
On the same count and under the same terms, then `O=C1c2ccccc2C2(c3cccc([N+](=O)[O-])c3)SCCN12` (stereo not given), with 0.86 µM.
